Measured values reported in patent US6551993B1, “Partial agonists at the glycine modulatory site of the NMDA receptor for treating cognitive dysfunction” (Thomas Jefferson University, priority 1999, dated 2003).
“Also recorded” adds a separate entry of the source.

What was measured:
Format in all cases: in vivo, cynomolgus monkeys (Macaca fascicularis)
[1] = system: chronic low dose MPTP-treated monkeys; assay: spatial delayed response (DR) task
From the text: (§1) Four adult male cynomolgus monkeys (Macaca fascicularis) weighing 5.0-8.0 kg at the beginning of testing were used. All animals had prior behavioral testing experience and had stable cognitive deficits as a result of prior MPTP administration. These animals had previously been used in other pharmacological studies (Schneider J S, Tinker J P, Van Velson M, Menzaghi F, Lloyd G K. Nicotinic acetylcholine receptor agonist SIB-1508Y improves cognitive functioning in chronic low dose MPTP-treated monkeys. J Pharmacol Exp Ther 290: In Press, 1999) but had received no drug treatments for at least 6 mos. prior to the start of this study. This study was approved by the Institutional Animal Care and Use Committee at Thomas Jefferson University and performed in accordance with the NIH Guide for the Care and Use of Laboratory Animals.
(§2) Three of the four animals were tested in a modified Wisconsin General Test Apparatus (WGTA) (Schneider and Kovelowski, 1990); one animal performed computer automated tasks while seated in front of a touch sensitive computer monitor located in a darkened sound-attenuated cubicle. All monkeys performed a spatial delayed response (DR) task, a variable delayed response task (VDR) and a visual discrimination (VD) task.
(§3) The monkeys that performed in the WGTA sat in a restraining chair situated in a sound-attenuating chamber with background masking noise, behind an opaque screen that when raised, allowed access to a sliding tray. The tray contained recessed food wells and identical sliding red Plexiglas covers that served as stimulus plaques that could be displaced by the animal to obtain rewards (raisins, dried fruit, marshmallows). The monkeys were trained to retrieve food from one of the wells after observing the experimenter bait a well. Right and left wells were baited in a balanced order. Each daily session consisted of 30 trials. For VDR testing, five different delay lengths (2, 5, 10, 20 and 30 secs.) were randomly distributed in blocks of trials over the 40 trials that made up a daily testing session. For VD testing, monkeys were trained to discriminate between two patterns (a cross and a horizontal bar) on otherwise identical Plexiglas covers. The position of the positive stimulus (cross) over the left or right food well varied pseudorandomly. The cover had to be displaced in order to retrieve reward from the recessed food well beneath the cover. A test session consisted of 30 trials. Animals were food deprived overnight prior to testing the next day.
(§4) The monkey that performed the computer automated tasks sat in a restraining chair situated in a sound-attenuating chamber with background masking noise, and faced a touch sensitive computer screen with a lever located beneath it. The animal initiated a DR or VDR trial by holding down the lever for one to three seconds. This caused the cue, a filled white circle one inch in diameter, to appear on the right or left side of the screen for two seconds. The cue was then extinguished for a delay period (five seconds for DR; 2, 5, 10, 20, and 30 secs. for VDR) and then identical left and right choice stimuli (filled red circles, one inch in diameter) were presented. The monkey was rewarded with a fruit flavored drink from an automatic dispenser if it touched the response light located on the same side as where the cue appeared. Side of cue presentation was counter-balanced and left/right rewards were distributed pseudorandomly over the 30 trials (40 trials for VDR) that made up a daily testing session. This animal was tested in the morning and fluid deprived overnight prior to testing.
(§5) Animals initially received low doses of MPTP for periods of up to 178 days until stable cognitive deficits (consistent performance deficits of at least 15% on DR) were observed (Schneider et al., 1999). These animals had not received any MPTP for at least 9 months prior to the start of this study. […]

[2] = system: chronic low dose MPTP-treated monkeys; assay: variable delayed response (VDR) task
From the text: as §1, §2, §3, §4, §5

[3] = system: chronic low dose MPTP-treated monkeys; assay: visual discrimination (VD) task
From the text: as §1, §2
as §3, with “A test session consisted of 30 trials. Animals were food deprived overnight prior to testing the next day.” left out
Animals initially received low doses of MPTP for periods of up to 178 days until stable cognitive deficits (consistent performance deficits of at least 15% on DR) were observed (Schneider et al., 1999). […] Drug effects were determined for D-cycloserine and MK-801 (Research Biochemicals International, Natick, M A) at doses of 100, 320, 1,000, and 8,000 μg/kg and 10, 20 or 32 μg/kg, respectively. […]

[4] = system: chronic low dose MPTP-treated monkeys; assay: motor functioning during visual discrimination testing

SMILES: N[C@@H]1CONC1=O [D-cycloserine]
- DR performance ([1]; 100 μg/kg i.m., approx. 30 min before test, vs. saline): Neither the low (100 μg/kg) nor high (8,000 μg/kg) doses of D-cycloserine had any effect
- DR performance ([1]; 320 μg/kg i.m., approx. 30 min before test, vs. saline (t=6.73, p<0.01)): significantly improving task performance
- DR performance ([1]; 1,000 μg/kg i.m., approx. 30 min before test, vs. saline (t=3.76, p<0.05)): significantly improving task performance
- DR performance ([1]; 8,000 μg/kg i.m., approx. 30 min before test, vs. saline): Neither the low (100 μg/kg) nor high (8,000 μg/kg) doses of D-cycloserine had any effect; also recorded: neither improvement nor further disruption
- MPTP-induced DR performance deficit ([1]; dose response 100 to 1000 μg/kg i.m., 4 animals, FIG. 1A): at least partially corrected
- VDR performance ([2]; 100 μg/kg i.m., all delays (2, 5, 10, 20, 30 sec)): had no effects
- VDR performance ([2]; 320 μg/kg i.m., at 2, 5, and 20 sec. delays): significantly improved performance
- VDR performance ([2]; 1,000 μg/kg i.m., at 2, 5, and 10 sec delays): significantly improved performance
- VDR performance ([2]; 8,000 μg/kg i.m.): neither improvement nor further disruption
- VDR performance ([2]; 30 sec. delay, any dose): None of the doses of D-cycloserine improved performance
- VDR performance ([2]; best (most facilitating) dose for each animal vs. saline, FIG. 1B): significantly improved performance at all but the longest delay
- VD performance ([3]; 8,000 μg/kg i.m., all animals, p<0.01 vs. saline, FIG. 2): significantly disrupted; also recorded: significantly impaired; also recorded: deficits induced in VD performance
- VD performance ([3]; 100 to 1,000 μg/kg i.m.): had no effects
- deficits in VD performance ([3]; low doses (10, 32 or 100 μg/kg)): not with low doses
- motor functioning ([4]; 8,000 μg/kg i.m.): did not significantly impair motor functioning

SMILES: C[C@]12N[C@H](Cc3ccccc31)c1ccccc12 [MK-801]
- DR performance ([1]; 10-32 μg/kg i.m., vs. saline): had no effects
- VD performance ([3]; 10-32 μg/kg i.m., all animals, p<0.01 vs. saline, FIG. 2): significantly disrupted; also recorded: significant impairment
- motor functioning ([4]; 10-32 μg/kg i.m.): did not significantly impair motor functioning
